Measured values from US20240327359A1, “3-ISOXAZOLIDINONE COMPOUND, PREPARATION METHOD, HERBICIDAL COMPOSITION AND APPLICATION THEREOF” (QINGDAO KINGAGROOT CHEMICAL COMPOUND CO., LTD., priority 2021, published 2024).

Columns and labels:
Type in all cases: in vivo
[1] = tested on: Echinochloa crusgalli, Scirpus juncoides, Bidens tripartita L., Sagittaria trifolia; rice (japonica rice); test: Transplanted rice safety evaluation and weed control effect evaluation in rice field; conditions: weeds 14 days, rice 21 days after treatment; observed with the naked eye
Description: Rice field soil was loaded into a 1/1,000,000 ha pot. The seeds of Echinochloa crusgalli, Scirpus juncoides, and Bidens tripartita L. were sowed and gently covered with soil, then placed in a greenhouse with water storage of 0.5-1 cm deep. The tuber of Sagittaria trifolia was planted in the next day or 2 days later. The water storage was kept at a depth of 3-4 cm thereafter. The weeds were treated by homogeneously dripping the WP or SC water diluents of the compounds of the present invention prepared according to the common preparation methods with a pipette to the specified effective amount when the Echinochloa crusgalli, Scirpus juncoides, and Bidens tripartita L. reached their 0.5 leaf stages and the Sagittaria trifolia reached the time point of the primary leaf stage.
In addition, the rice field soil that loaded into the 1/1,000,000 ha pot was leveled to keep water storage at a depth of 3-4 cm. […]
The development condition of Echinochloa crusgalli, Scirpus juncoides, Bidens tripartita L., and Sagittaria trifolia 14 days after the treatment of the compound of the invention and the development condition of rice 21 days after the treatment of the compound of the invention were respectively observed with the naked eye. The weed control effect was evaluated according to the above activity level criteria. […]

[2] = tested on: rice; test: Post-emergence stage, crop damage; conditions: 720 g a.i./ha, 3 weeks after application
Source text: (§1) The activity level criteria for plant damage (i.e., growth control rate) are as follows:
(§2) The above growth control rates are fresh weight control rates.
(§3) Monocotyledonous and dicotyledonous weed seeds (Descurainia sophia, Capsella bursa-pastoris, Abutilon theophrasti, Galium aparine, Stellaria media, Lithospermum arvense, Rorippa indica, Alopecurus aequalis, Alopecurus japonicus, Eleusine indica, Beckmannia syzigachne, Sclerochloa dura, Phleum paniculatum, Veronica didyma, Bromus japonicus, Aegilops tauschii, Phalaris arundinacea, Amaranthus retroflexus, Chenopodiaceae, Commelina communis, Sonchus arvensis, Convolvulus arvensis, Cirsium setosum, Solanumnigrum, Acalypha australis, Digitaria sanguinalis, Echinochloa crusgalli, Setaria viridis, Setaria glauca, Leptochloa chinensis, Monochoria vaginalis, Sagittaria trifolia, Scirpus juncoides, Cyperus rotundus, Cyperus iria, Cyperus difformis, Fimbristylis, Portulaca oleracea, Xanthium sibiricum, Pharbitis nil, Conyza Canadensis, etc.) and major crop seeds (wheat, corn, rice, soybean, cotton, oilseed rape, millet, sorghum, potato, sesame, ricinus, etc.) were placed in plastic pots filled with soil, then covered with 0.5-2 cm of soil, allowed to grow in a good greenhouse environment. Two weeks after sowing, the test plants were treated in the 2-3 leaf stage. The tested compounds of the present invention were respectively dissolved in acetone, then added with Tween 80 and 1.5 liter/ha of emulsifiable concentrate of methyl oleate as synergist, diluted with a certain amount of water to obtain a solution of a certain concentration, and sprayed by a spray tower onto the plants. After the application, the plants were cultured for 3 weeks in the greenhouse, and then the experimental results of the weeding were recorded. The doses of the used compounds were 45, 90, 180, 360, 720 g a.i./ha, and the averages were obtained from three replicates.

[3] = tested on: wheat; test: Post-emergence stage, crop damage; conditions: 720 g a.i./ha, 3 weeks after application
Source text: as §1, §2, §3

[4] = tested on: Galium aparine; test: Activity test of the compositions, post-emergence treatment by foliage spray; conditions: foliage (F), A 16 g a.i./mu
Description: The desired active ingredient B was purchased from a reagent company or synthesized by a known method. The technical materials were all dissolved in acetone and diluted with an aqueous solution containing 0.10% emulsifier Tween-80 which were to be used immediately after dilution.
Weeds were cultivated by a pot culture method. […] Weed seeds with plump and uniform grains were selected, soaked in lukewarm water at 25° C. for 6 hours, and germinated in a 28° C. biochemical incubator (in darkness). The weed seeds that had just germinated were evenly placed on the surface of the soil and then covered with 0.5-1 cm soil according to the sizes of seeds.
Each treatment was repeated 4 times. Four pots with 20 weed seeds per pot were treated each time.
The agents were used for only once in total in the experiment. In the stage of 1.5-2 leaves, the weeds were thinned out to maintain 10 weeds per pot. Ten weeds were kept in each treatment, then continued to be cultured until Echinochloa crus-galli var. zelayensis reached the stage of 2-3 leaves, Cirsium setosum reached the stage of 5-6 leaves, Galium aparine reached the stage of 3-4 whorl leaves, Amaranthus retroflexus reached the stage of 3-5 leaves, Echinochloa crusgalli, Lolium multiflorum and Digitaria sanguinalis reached the stage of 3 leaves with one leaf not fully expanding for further treatment.
The well-cultured test materials were evenly placed on a platform with an area of 0.5 m^2, and solution of agents was sprayed on the stems and leaves thereof by the 3WP-2000-type walking spray tower at a dosage of 450 kg/ha and at a spray pressure of 0.3 MPa. After all the solution was sprayed, the valve was closed. After 30 seconds, the door of the spray tower was opened, and the nutritional bowl was taken out. Then the valve was opened, and the spray tube was cleaned by spraying 50 ml of water. After the treatment, the weeds were routinely cultured in a greenhouse.
A method for investigating absolute numbers was employed. Whole seedlings of survival weeds were cut off with a blade along the soil surface, and the fresh weight of the weeds was weighed with an analytical balance. For dead weeds, the fresh weight thereof was zero.
The investigation was performed 21 days after the treatment for only once in total.

[5] = tested on: Lolium multiflorum; test: as above; conditions: foliage (F), A 16 g a.i./mu
[6] = tested on: Cirsium setosum; test: as above; conditions: foliage (F), A 32 g a.i./mu
[7] = tested on: Echinochloa crusgalli; test: as above; conditions: foliage (F), A 16 g a.i./mu
[8] = tested on: Echinochloa crus-galli var. zelayensis; test: as above; conditions: Echinochloa crusgalli var. zelayensis; foliage (F); A 16 g a.i./mu
[9] = tested on: Digitaria sanguinalis; test: as above
[10] = tested on: Amaranthus retroflexus; test: as above; conditions: foliage (F)

## CC1(C)CON(Cc2ccc(Cl)cc2Br)C1=O [Compound 1]
[1]
  weed control effect and transplanted rice safety in rice field: excellent activity and selectivity
[2]
  plant damage level (growth control rate) on crop, post-emergence stage: 1 (Level 1: growth control rate is greater than or equal to 5% and less than 20%)
[3]
  plant damage level (growth control rate) on crop, post-emergence stage: 1 (Level 1: growth control rate is greater than or equal to 5% and less than 20%)
[4]
  Control effect (%) of A applied alone (A): 55.4%
[5]
  Control effect (%) of A applied alone (A): 56.7%
[6]
  Control effect (%) of A applied alone (A): 64.2%
[7]
  Control effect (%) of A applied alone (A): 46.2%
[8]
  Control effect (%) of A applied alone (A): 43.6%
[9]; foliage (F), A 16 g a.i./mu
  Control effect (%) of A applied alone (A): 42.3%
[9]; foliage treatment (F), A at 16 g a.i./mu, fresh weight inhibition 21 days after treatment
  Control effect (%) of A applied alone (A): 42.3%
[10]; A 8 g a.i./mu
  Control effect (%) of A applied alone (A): 36.7%
[10]; A 16 g a.i./mu
  Control effect (%) of A applied alone (A): 36.7%
